Bounds are passed on as bounds.

For the test, the target named is T1, Human eIF4E (Homo sapiens, UniProt P06730).
T1 construct: Human eIF4E (aa 28-217) with a C-terminal His-tag; made in house
T1 sequence (P06730 28-217): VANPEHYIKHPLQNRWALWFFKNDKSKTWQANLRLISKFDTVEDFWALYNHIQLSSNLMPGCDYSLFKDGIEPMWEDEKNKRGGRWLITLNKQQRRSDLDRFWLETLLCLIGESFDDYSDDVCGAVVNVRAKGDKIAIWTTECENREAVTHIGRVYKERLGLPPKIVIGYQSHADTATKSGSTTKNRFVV
Nature of the test: Human eIF4E/4G2 binding assay (TR-FRET). The following applies: eIF4E (aa 28-217) with biotin labeled 4G2 peptide. In short, it runs like this:
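His-tagged human eIF4E (aa 28-217), refolded from E. coli inclusion bodies, at 82.5 nM working stock; compounds in 10-point 2-fold DMSO series, preincubated 15 min at RT in 50 mM NaPi pH 6.5, 50 mM KCl, 1 mM DTT. Biotin-4G2 peptide added, 15 min, then Eu-streptavidin/APC-anti-His, 20 min; normalized 665/615 nm TR-FRET signal; IC50 by curve fit.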
Background: TR-FRET usually uses a lanthanide donor and a delayed reading to cut background.
One may read the IC50 as the concentration at which inhibition is half-maximal. Low readings indicate greater potency, high ones weaker potency. The compound `O=C(O)CCc1nc(-c2ccc(-c3ccc(F)cc3)cc2)c(-c2ccccc2)s1` [Compound I-234, 3-(4-(4′-fluorobiphenyl-4-yl)-5-phenylthiazol-2-yl)propanoic acid] displayed an IC50 of less than 5 µM.
The value for `CC(C)(CNc1nc(-c2ccc(-c3ccc(F)cc3)cc2)c(-c2cncnc2)s1)C(=O)O` [Compound I-73] was greater than 25 µM.
The value for `CC1(C(=O)O)CCCN(c2nc(-c3ccc(-c4cnco4)cc3)c(-c3cccnc3)s2)C1` (centres unmarked) [Compound I-62] was greater than 25 µM; that for `CC1(C(=O)O)CN(c2nc(-c3ccc(Oc4ccccc4)cc3)c(-c3cncnc3)s2)C1` [Compound I-164] was greater than 25 µM.
The result for `O=C(O)C1CC(CNc2nc(-c3ccc(Oc4ccccc4)cc3)c(-c3ccccc3)s2)C1` (centres unmarked) [Compound I-201] reads less than 5 µM; that for `O=C(O)CC1CCCN1c1nc(-c2ccc(-c3cnco3)cc2)c(-c2cccnc2)s1` (centres unmarked) [Compound I-38], greater than 25 µM.
As to `O=C(O)C1CN(c2nc(-c3ccccc3)c(-c3ccc(-c4ccc(F)cc4)cc3)s2)CCO1` (centres unmarked) [Compound I-240, 4-(5-(4′-fluorobiphenyl-4-yl)-4-phenylthiazol-2-yl) morpholine-2-carboxylic acid], the IC50 was less than 5 µM.
Compound `CC(CNc1nc(-c2cncnc2)c(-c2ccc(-c3ccc(F)cc3)cc2)s1)C(=O)O` (centres unmarked) [Compound I-102] registered an IC50 greater than 25 µM.
As for `CC(C)C(CC(=O)O)Nc1nc(-c2ccc(Oc3ccccc3)cc2)cs1` (centres unmarked) [Compound I-148], the IC50 is greater than 25 µM.
The result for `O=C(O)C[C@@H]1CCCN1c1nc(-c2ccc(-c3ccc(F)cc3)cc2)c(-c2ccccc2)s1` [Compound I-226] reads less than 5 µM; that for `O=C(O)C1(CNc2nc(-c3ccc(Oc4ccccc4)cc3)c(-c3cccc4[nH]ccc34)s2)CC1` [Compound I-199], 5 to 25 µM.
The value for `O=C(O)C1CC(CNc2nc(-c3ccc(Oc4ccccc4)cc3)cs2)C1` (centres unmarked) [Compound I-200] was greater than 25 µM; that for `O=C(O)C1CN(c2nc(-c3ccc(-c4ccc(F)cc4)cc3)c(-c3cccc4[nH]ccc34)s2)CCO1` (centres unmarked) [Compound I-143] was less than 5 µM.
The value for `O=C(O)C1CN(c2nc(-c3ccc(-c4cnco4)cc3)c(-c3cccnc3)s2)CCO1` (centres unmarked) [Compound I-58] was greater than 25 µM; that for `CC1(C(=O)O)CN(c2nc(-c3ccc(-c4ccc(F)cc4)cc3)cs2)C1` [Compound I-81] was greater than 25 µM.
`CC(C)(CC(=O)O)Nc1nc(-c2ccc(Oc3ccccc3)cc2)c(-c2cncnc2)s1` [Compound I-150]: the IC50 was greater than 25 µM.
The value for `CC1(C(=O)O)CCCN(c2nc(-c3ccc(Oc4ccccc4)cc3)c(-c3cccnc3)s2)C1` (centres unmarked) [Compound I-219] was 5 to 25 µM; that for `CC(C)C(CC(=O)O)Nc1nc(-c2cccnc2)c(-c2ccc(-c3cnco3)cc2)s1` (centres unmarked) [Compound I-3] was greater than 25 µM.
For the compound `CC(C)C(CC(=O)O)Nc1nc(-c2ccccc2)c(-c2ccc(-c3cnco3)cc2)s1` (centres unmarked) [Compound I-1], the IC50 was greater than 25 µM.
The compound `O=C(O)C1CC(CNc2nc(-c3ccc(Oc4ccccc4)cc3)c(-c3cccnc3)s2)C1` (centres unmarked) [Compound I-203] came in with an IC50 greater than 25 µM.
The compound `O=C(O)CC1CCCN1c1nc(-c2ccc(-c3ccc(F)cc3)cc2)c(-c2cccc3[nH]ccc23)s1` (centres unmarked) [Compound I-114] displayed an IC50 of less than 5 µM.
The value for `CC1(C(=O)O)CN(c2nc(-c3ccc(-c4ccc(F)cc4)cc3)c(-c3cccnc3)s2)C1` [Compound I-85] was greater than 25 µM; that for `O=C(O)C1CN(c2nc(-c3ccc(-c4cnco4)cc3)c(-c3ccccc3)s2)C1` [Compound I-9] was greater than 25 µM.
The value for `O=C(O)[C@@H]1CCCN(c2nc(-c3ccc(Oc4ccccc4)cc3)c(-c3ccccc3)s2)C1` [Compound I-227] was less than 5 µM; that for `CC(C)(CNc1nc(-c2ccc(-c3ccc(F)cc3)cc2)cs1)C(=O)O` [Compound I-70] was greater than 25 µM.
The result for `O=C(O)C1CCCN(c2nc(-c3ccc(-c4cnco4)cc3)c(-c3cccc4[nH]ccc34)s2)C1` (centres unmarked) [Compound I-34] reads greater than 25 µM.

Source of the values: US12030875B2, “EIF4E inhibitors and uses thereof” (PIC Therapeutics, Inc., priority 2018, dated 2024).
